In the CheMixHub viscosity set:

Test: xn = mol fraction of the nth substance listed

Cc1ccccn1 + Brc1ccccc1
viscosity [mPa·s], 101 kPa
Details	x1 = 0.2	x1 = 0.4	x1 = 0.6	x1 = 0.8
293.15 K	1.072	1.016	0.954	0.885
313.15 K	0.833	0.785	0.736	0.684

ClC=C(Cl)Cl + C1CCOC1
303.15 K, 101 kPa
Details	viscosity [mPa·s]
x2 = 0.0614	0.5484
x2 = 0.1057	0.5631
x2 = 0.2281	0.5879
x2 = 0.3529	0.5932
x2 = 0.4929	0.5817
x2 = 0.5166	0.5781
x2 = 0.64	0.556
x2 = 0.7608	0.5289
x2 = 0.8813	0.4983
x2 = 0.9421	0.4822

ClC=C(Cl)Cl + C1COCCO1
101.33 kPa
Details	viscosity [mPa·s]
298.15 K, x1 = 0.1027	1.036
298.15 K, x1 = 0.2015	0.963
298.15 K, x1 = 0.3002	0.909
298.15 K, x1 = 0.409	0.854
298.15 K, x1 = 0.502	0.814
298.15 K, x1 = 0.6078	0.767
298.15 K, x1 = 0.6921	0.732
298.15 K, x1 = 0.8076	0.685
298.15 K, x1 = 0.9058	0.649
303.15 K, x2 = 0.0577	0.5863
303.15 K, x2 = 0.1189	0.6434
303.15 K, x2 = 0.289	0.7496
303.15 K, x2 = 0.3696	0.7787
303.15 K, x2 = 0.4012	0.7885
303.15 K, x2 = 0.5728	0.837
303.15 K, x2 = 0.6186	0.8515
303.15 K, x2 = 0.7841	0.9264
303.15 K, x2 = 0.892	0.9979
303.15 K, x2 = 0.9513	1.045
308.15 K, x1 = 0.1027	0.907
308.15 K, x1 = 0.2015	0.852
308.15 K, x1 = 0.3002	0.804
308.15 K, x1 = 0.409	0.757
308.15 K, x1 = 0.502	0.727
308.15 K, x1 = 0.6078	0.693
308.15 K, x1 = 0.6921	0.67
308.15 K, x1 = 0.8076	0.64
308.15 K, x1 = 0.9058	0.613
318.15 K, x1 = 0.1027	0.815
318.15 K, x1 = 0.2015	0.764
318.15 K, x1 = 0.3002	0.726
318.15 K, x1 = 0.409	0.69
318.15 K, x1 = 0.502	0.673
318.15 K, x1 = 0.6078	0.653
318.15 K, x1 = 0.6921	0.635
318.15 K, x1 = 0.8076	0.605
318.15 K, x1 = 0.9058	0.586

NC1CCCCC1 + C1COCO1
298.15 K, 101 kPa
Details	viscosity [mPa·s]
x2 = 0.1295	1.517
x2 = 0.2508	1.331
x2 = 0.3646	1.174
x2 = 0.4716	1.044
x2 = 0.5724	0.9345
x2 = 0.6676	0.8431
x2 = 0.7575	0.7633
x2 = 0.8427	0.6955
x2 = 0.9234	0.6344

CC(O)CO (centres undefined) + CC#N
viscosity [mPa·s], 100 kPa
Details	x2 = 0.1127	x2 = 0.2	x2 = 0.3055	x2 = 0.4021	x2 = 0.5008	x2 = 0.5989	x2 = 0.6987	x2 = 0.7958	x2 = 0.8961
293.15 K	31.4	20.3	12.2	7.53	4.71	2.9	1.82	1.1	0.66
298.15 K	25.4	16.9	10.3	6.21	4.02	2.42	1.57	0.97	0.59
303.15 K	20.8	13.8	8.68	5.48	3.52	2.25	1.4	0.87	0.53

ClC=C(Cl)Cl + CC#N
Details	viscosity [mPa·s]
298.15 K, 101 kPa, x1 = 0.0501	0.358
298.15 K, 101 kPa, x1 = 0.099	0.373
298.15 K, 101 kPa, x1 = 0.2003	0.406
298.15 K, 101 kPa, x1 = 0.3001	0.434
298.15 K, 101 kPa, x1 = 0.3984	0.461
298.15 K, 101 kPa, x1 = 0.4976	0.485
298.15 K, 101 kPa, x1 = 0.5968	0.504
298.15 K, 101 kPa, x1 = 0.7206	0.526
298.15 K, 101 kPa, x1 = 0.7798	0.532
298.15 K, 101 kPa, x1 = 0.9038	0.541
298.15 K, 101 kPa, x2 = 0.0708	0.524
298.15 K, 101 kPa, x2 = 0.1846	0.515
298.15 K, 101 kPa, x2 = 0.3572	0.494
298.15 K, 101 kPa, x2 = 0.4854	0.471
298.15 K, 101 kPa, x2 = 0.5616	0.458
298.15 K, 101 kPa, x2 = 0.6719	0.433
298.15 K, 101 kPa, x2 = 0.775	0.403
298.15 K, 101 kPa, x2 = 0.9121	0.369
303.15 K, 101.32 kPa, x2 = 0.0893	0.5209
303.15 K, 101.32 kPa, x2 = 0.1803	0.5171
303.15 K, 101.32 kPa, x2 = 0.2502	0.5072
303.15 K, 101.32 kPa, x2 = 0.3697	0.4877
303.15 K, 101.32 kPa, x2 = 0.5273	0.4539
303.15 K, 101.32 kPa, x2 = 0.6422	0.4238
303.15 K, 101.32 kPa, x2 = 0.7089	0.4071
303.15 K, 101.32 kPa, x2 = 0.7814	0.3824
303.15 K, 101.32 kPa, x2 = 0.8363	0.3654
303.15 K, 101.32 kPa, x2 = 0.9308	0.3451
308.15 K, 101 kPa, x2 = 0.0708	0.483
308.15 K, 101 kPa, x2 = 0.1846	0.471
308.15 K, 101 kPa, x2 = 0.3572	0.451
308.15 K, 101 kPa, x2 = 0.4854	0.43
308.15 K, 101 kPa, x2 = 0.5616	0.417
308.15 K, 101 kPa, x2 = 0.6719	0.396
308.15 K, 101 kPa, x2 = 0.775	0.37
308.15 K, 101 kPa, x2 = 0.9121	0.341
318.15 K, 101 kPa, x2 = 0.0708	0.443
318.15 K, 101 kPa, x2 = 0.1846	0.431
318.15 K, 101 kPa, x2 = 0.3572	0.413
318.15 K, 101 kPa, x2 = 0.4854	0.393
318.15 K, 101 kPa, x2 = 0.5616	0.384
318.15 K, 101 kPa, x2 = 0.6719	0.364
318.15 K, 101 kPa, x2 = 0.775	0.342
318.15 K, 101 kPa, x2 = 0.9121	0.315

ClC=C(Cl)Cl + CC(=O)CC(C)C
viscosity [mPa·s], 101.33 kPa
Details	x1 = 0.1088	x1 = 0.1998	x1 = 0.3286	x1 = 0.4037	x1 = 0.5018	x1 = 0.5921	x1 = 0.7362	x1 = 0.7986	x1 = 0.8859
298.15 K	0.564	0.578	0.593	0.603	0.616	0.621	0.631	0.63	0.624
308.15 K	0.508	0.516	0.533	0.546	0.561	0.574	0.595	0.6	0.605
318.15 K	0.464	0.475	0.49	0.5	0.51	0.519	0.533	0.539	0.547

CC(O)CO (centres undefined) + CC(=O)N(C)C
viscosity [mPa·s], 101 kPa
Details	x2 = 0.0807	x2 = 0.0999	x2 = 0.2	x2 = 0.2994	x2 = 0.4014	x2 = 0.4996	x2 = 0.6	x2 = 0.6954	x2 = 0.7937	x2 = 0.8997
293.15 K	36.91	33.19	19.06	11.57	7.324	4.919	3.403	2.466	1.827	1.349
303.15 K	21.61	19.64	12.06	7.768	5.202	3.659	2.637	1.987	1.512	1.151
313.15 K	13.49	12.39	8.071	5.477	3.845	2.819	2.108	1.634	1.277	1
323.15 K	8.96	8.317	5.673	4.023	2.939	2.229	1.718	1.368	1.097	0.879

ClC=C(Cl)Cl + CC(C)(C)O
303.15 K, 101.3 kPa
Details	viscosity [mPa·s]
x1 = 0.1042	1.951
x1 = 0.2103	1.329
x1 = 0.3164	1.018
x1 = 0.4143	0.856
x1 = 0.5147	0.758
x1 = 0.6204	0.689
x1 = 0.7102	0.648
x1 = 0.8036	0.608
x1 = 0.9088	0.562

NC1CCCCC1 + CC(C)(C)O
298.15 K, 101 kPa
Details	viscosity [mPa·s]
x1 = 0.0767	4.039
x1 = 0.1574	3.722
x1 = 0.2426	3.444
x1 = 0.3325	3.203
x1 = 0.4277	2.974
x1 = 0.5285	2.749
x1 = 0.6355	2.519
x1 = 0.7493	2.309
x1 = 0.8706	2.106

CC(O)CO (centres undefined) + CC(C)=O
viscosity [mPa·s], 100 kPa
Details	x2 = 0.1	x2 = 0.2	x2 = 0.2998	x2 = 0.3999	x2 = 0.5004	x2 = 0.5999	x2 = 0.6999	x2 = 0.8	x2 = 0.9001
293.15 K	29.94	14.46	7.145	3.875	2.363	1.532	0.934	0.601	0.4671
298.15 K	22.95	11.54	5.918	3.303	2.066	1.356	0.8597	0.5688	0.4463
303.15 K	17.9	9.34	4.965	2.882	1.821	1.201	0.7943	0.5379	0.4209
308.15 K	14.19	7.662	4.208	2.55	1.614	1.103	0.7356	0.5208	0.3953
313.15 K	11.41	6.362	3.602	2.189	1.44	0.9924	0.6822	0.4945	0.377
318.15 K	9.297	5.341	3.109	1.971	1.298	0.8944	0.6317	0.4731	0.3691
323.15 K	7.672	4.529	2.71	1.717	1.175	0.815	0.5813	0.4533	0.3477

ClC=C(Cl)Cl + CC(C)CCO
303.15 K, 101.3 kPa
Details	viscosity [mPa·s]
x1 = 0.0921	2.553
x1 = 0.2031	2.01
x1 = 0.2728	1.705
x1 = 0.4124	1.237
x1 = 0.5054	1.027
x1 = 0.6208	0.85
x1 = 0.7016	0.758
x1 = 0.814	0.666
x1 = 0.9047	0.597

ClC=C(Cl)Cl + CC(C)CO
viscosity [mPa·s]
Details	293.15 K	303.15 K	313.15 K
101.3 kPa, x1 = 0.1086	–	2.134	–
101.3 kPa, x1 = 0.2127	–	1.627	–
101.3 kPa, x1 = 0.3178	–	1.273	–
101.3 kPa, x1 = 0.4018	–	1.075	–
101.3 kPa, x1 = 0.5178	–	0.889	–
101.3 kPa, x1 = 0.6042	–	0.795	–
101.3 kPa, x1 = 0.7191	–	0.703	–
101.3 kPa, x1 = 0.8127	–	0.644	–
101.3 kPa, x1 = 0.9144	–	0.581	–
101.33 kPa, x2 = 0.15	0.8993	0.7678	0.6502
101.33 kPa, x2 = 0.3	1.228	1.005	0.8284
101.33 kPa, x2 = 0.45	1.556	1.242	1.007
101.33 kPa, x2 = 0.6	1.884	1.478	1.185
101.33 kPa, x2 = 0.75	2.213	1.715	1.365
101.33 kPa, x2 = 0.9	2.541	1.952	1.542

NC1CCCCC1 + CC(C)CO
Details	viscosity [mPa·s]
293.15 K, 100 kPa, x2 = 0.1205	2.575
298.15 K, 101 kPa, x1 = 0.0767	3.274
298.15 K, 101 kPa, x1 = 0.1574	3.183
298.15 K, 101 kPa, x1 = 0.3325	3.067
298.15 K, 101 kPa, x1 = 0.4277	2.976
298.15 K, 101 kPa, x1 = 0.5285	2.859
298.15 K, 101 kPa, x1 = 0.6355	2.681
298.15 K, 101 kPa, x1 = 0.7493	2.447
298.15 K, 101 kPa, x1 = 0.8706	2.165
308.15 K, 100 kPa, x2 = 0.6492	2.275
